Measurements from patent publication US6610473B1 (priority 1999, dated 2003).

Molecular target: HPV16-E6 protein (Human papillomavirus type 16, UniProt P03126)
Sequence (P03126 whole entry): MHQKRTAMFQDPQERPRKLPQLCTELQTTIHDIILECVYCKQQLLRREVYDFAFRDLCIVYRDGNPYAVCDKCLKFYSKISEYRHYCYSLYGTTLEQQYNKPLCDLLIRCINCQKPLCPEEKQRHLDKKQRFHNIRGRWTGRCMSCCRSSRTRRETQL

Row | Substance | clones obtained in another screening assay for HPV-E6 protein-binding peptides
1 | NH2-LFDIFRLCAQ PVLVHGHTRV-COOH [E61-20.pep] | obtained
2 | NH2-LVGRVRIGVS VFIRGGRLL-COOH [E61-19.pep] | obtained
